The values below come from patent publication US7906334B2, “Method for reproducing conifers by somatic embryogenesis using lactose as a carbon source” (Cellfor Inc., priority 2003, dated 2011).

Data set [1] has as its system Douglas fir embryogenic tissue, cell line DF-2. The data set is described as follows: Effects of carbohydrates on liquid maintenance of Douglas fir embryogenic tissue. Format: cell-based, Pseudotsuga menziesii (Douglas fir). The conditions noted are these: 3 weeks suspension maintenance/bulking-up, 0.5% galactose, 1% lactose, 0.5% mannitol. On the procedure:
The culture medium for Douglas fir was TX medium (see Table A) with the following additives: glutamine 100 mg., Casein hydrolysate 100 mg., and pH 5.8. The following compounds were added into the basal medium for Douglas fir somatic embryo development at different stages: • 1) Induction medium: 18 μM 2,4-D and 9 μM BA, phytagel 0.28%, sucrose 1% • 2) Solid maintenance medium: 9 μM 2,4-D and 4.5 μM BA, phytagel 0.28%, sucrose 1%. • 3) Liquid maintenance and bulking-up medium: 9 μM 2,4-D and 4.5 μM BA, different carbon sources for experiments. • 4) Liquid pre-treatment medium: 20 (first week) or 30 μM ABA (second week), 10% PEG4000 (first week) or PEG1500 (second week), different carbon sources as described in examples below. • 5) Solid maturation media: TX (Table A) plus 0.02% NH4NO3 • Medium I. 40 μM ABA, 10% PEG 1500, maltose 2.5%, phytagel 0.6% • Medium II. 60 μM ABA, 10% PEG1500, maltose 2.5% and sucrose 1%, phytagel 0.8% • Medium III. 70 μM ABA, 6% PEG1500, sucrose 6%, phytagel 1%.
Embryogenic tissue was induced from immature zygotic embryos. The cones and seeds were surface-sterilised as described for pines, and embryos were dissected out from megagametophytes. The embryos, with the attachment of suspensors to their megagametophytes, were placed on the surface of induction medium. The culture was kept in darkness at 23° C. Embryogenic tissue was sub-cultured once every two weeks onto solid maintenance medium.
Embryogenic tissue of Douglas fir was collected from solid maintenance culture and one gram of tissue was transferred into a 200 ml flask containing 50 ml TX (see Table A) liquid maintenance medium. The liquid maintenance medium was supplied with different sugars (Table 8).
The tissue was drained, weighed and sub-cultured once per week. During a culture period of three weeks, the highest tissue growth was found in the culture with glucose as the major carbon source. The media containing sucrose, maltose and galactose also supported a fast tissue growth. With these latter sugars, tissue increased to 68 to 100 fold in three weeks. Tissue grew little in the media containing lactose or mannitol. […] Similar results were obtained within two cell lines, DF-7A and DF-2.

Data set [2] relates to loblolly pine embryogenic tissue. The experiment in a line: Effect of carbon source on solid maintenance of loblolly pine. The data set is classed as cell-based, Pinus taeda (loblolly pine). As to conditions: semi-solid TX medium; 1% sucrose, or 1.5% lactose and 0.025% glucose. How it is done: Tissue induced on sucrose from Example 1 was further maintained on the semi-solid TX medium containing 1% sucrose, and tissue induced on lactose was maintained on semi-solid TX medium containing 1.5% lactose and 0.025% glucose. The tissue morphology of the lines induced on lactose was different from the ones induced on sucrose. […] In order to further increase the proliferation rate, 0.5% sucrose was added to the TX 1.5% lactose-containing medium in place of 0.025% glucose. This medium provided a reasonable bulk-up rate, and growth of embryos was more synchronized than in the 1% sucrose medium.

The test system of data set [3] is Loblolly pine megagametophytes containing immature zygotic embryos. The experiment in a line: Effect of carbon source on induction of loblolly pine. The data set is classed as cell-based, Pinus taeda (loblolly pine). How it is done: Female gametophytes containing the immature zygotic embryos were used as explants. The cones were surface sterilized in 10% bleach solution for 15 min. They were rinsed 3 times with sterile water, air dried and stored in polyethylene bags at 4° C. until used. Seeds were sterilized in 3% hydrogen peroxide containing 0.1% Tween 20 and rinsed in sterile deionized water. Megagametophytes containing the immature embryos were plated on TX medium (Table A) supplemented with 2.2 mg/l 2,4-D, 1 mg/l BA and 0.3% Phytagel and containing either 1% sucrose, or 1.5% lactose and 0.025% glucose.
Cultures were maintained on the two media by subculturing the embryogenic tissue every 10 to 14 days to fresh media. All cultures were incubated at 23° C. in the dark.

The subject of data set [4] is loblolly pine lines LP2, LP3 and LP4. The experiment in a line: Effect of lactose during the prematuration steps. The data set is classed as cell-based, Pinus taeda (loblolly pine). The conditions noted are these: 1% sucrose maintenance. How it is done: Prematuration for loblolly pine may be performed in two steps: • 1. Prematuration I requires reduction of hormones either by reducing the auxin and cytokinin concentrations to optimally about 1/20 of the concentration of proliferation step, or by adding charcoal at about 0.01 to 1%, or a combination of both. • 2. Prematuration II follows prematuration I and requires an addition of ABA at concentrations of about 5 to 120 μM, preferably 90 μM and no auxin and cytokinins.
In order to further understand the effect of lactose on somatic embryo development, liquid maintenance cultures were started in TX medium containing 1% sucrose as in Example 3. Three lines were used in this experiment, LP2, LP3 and LP4. After the proliferation step, 2 g of the tissue was transferred for one week to prematuration medium I containing different concentrations of lactose—1.5%, 3% and 6%. After that, 1.5 g of tissue produced in the lactose-containing media was further cultured for a week in prematuration medium II containing the same amount of lactose. 3.

For data set [5], the system named is Douglas fir embryogenic tissue. The data set is described as follows: Medium osmolarity before and after one-week tissue inoculation. Format: cell-based, Pseudotsuga menziesii (Douglas fir). The conditions noted are these: medium with 0.5% galactose, 1% lactose, 0.5% mannitol or 0.5% glucose. The source says:
More change of medium osmolarity occurred during week 2 than week 1. The medium osmolarity changed little when lactose or mannitol was used in the media.

Data set [6] concerns loblolly pine lines LP1 and LP3. The data set is described as follows: Effect of galactose and galactose-containing sugars during proliferation and prematuration on SE yield. As to conditions: for # SE/g FW / Amount of tissue at the end of the preculture II stage: 1% sucrose, 1.5% maltose, 1.5% lactose or 0.75% galactose. On the set-up: Amount of tissue at the end of the preculture II stage: unit not given here. The data set is classed as cell-based, Pinus taeda (loblolly pine). How it is done: The finding that loblolly pine cultures were capable of utilising galactose is unique. In order to further investigate these phenomenon two lines, LP1 and LP3, were cultured on semi-solid TX medium containing 1.0% lactose and 0.5% sucrose. Cultures were maintained by subculturing the embryogenic tissue every 10 to 14 days to fresh media. All cultures were incubated at 23° C. in the dark. Suspension cultures were initiated as described in Example 3, however, TX medium was supplemented with either 1% sucrose, 1.5% maltose, 1.5% lactose, or 0.75% galactose. These cultures were maintained in liquid media for 4 weeks by weekly transfers to fresh maintenance or prematuration media. After the 4˜week period, 1 ml of the liquid medium containing 0.1 g of tissue consisting of early stage somatic embryos was plated on each […] plates containing ½ LV maturation medium. This medium contained 120 μM ABA and 6.0% sucrose and 1% Phytagel. Eight to ten weeks later, mature somatic embryos were counted and treatments were evaluated based on the number of somatic embryos per gram fresh weight (Table 5).

Data set [7] has as its system Suspension cultures of loblolly lines LP1, LP2, LP3, LP4 and LP5. The data set is described as follows: Effect of carbon source on liquid maintenance: growth rate and yield of somatic embryos. Format: cell-based, Pinus taeda (loblolly pine). The conditions noted are these: 1% sucrose. On the procedure: Suspension cultures of loblolly lines LP1, LP2, LP3, LP4 and LP5 were started with 2 g of tissue introduced to 50 ml of TX liquid medium containing different sugars—1% sucrose, 1.5% maltose, or 1.5% lactose. These cultures were maintained in the same liquid media for 2 weeks by weekly transfers to fresh maintenance medium containing the above sugars. Then, 2 g of tissue produced in each maintenance medium was transferred to prematuration media I, containing the same carbon source as the maintenance media. After one week, 1.5 g of tissue from each prematuration medium I was transferred to prematuration media II containing the same sugars. After the 4 week period in liquid media, early stage somatic embryos were collected and plated on ½ LV maturation medium containing 120 μM ABA and 6.0% sucrose and 1% Phytagel. Eight to ten weeks later, mature somatic embryos were counted and treatments were evaluated based on the number of somatic embryos per gram fresh weight (SE/g FW). Table 2 summarises the tissue yield at the end of the 4-week period and the number of mature somatic embryos produced for each line.

[8] abbreviates: then 1.5% lactose in prematuration I and II.
[9] abbreviates: then 3% lactose in prematuration I and II.
Where [10] appears, read: then 6% lactose in prematuration I and II.

In the case of `OC[C@H]1O[C@@H](O[C@H]2[C@H](O)[C@@H](O)C(O)O[C@@H]2CO)[C@H](O)[C@@H](O)[C@H]1O` (stereo partly drawn) [Lactose], the “Tissue growth (fold, mean ± SD)” value worked out at 1.40 ± 0.14 fold in data set [1] (additional glucose 0%, 0.5% glucose, 1% sucrose, 1% maltose) and 2.75 ± 0.24 fold in data set [1] (additional glucose 0.025%). Further, the tissue morphology result in data set [2] was “more early-stage immature embryos and a limited amount of suspensor type of surrounding tissue”. Moreover, the “Induction success, lactose medium compared with sucrose medium” value in data set [3] was “greater than three times higher”. For the same molecule, the “Mean # SE/g FW ± sd” value in data set [4] (setting [8]) worked out at 106 ± 9 SE/g FW; in data set [4] (setting [9]), 209 ± 7 SE/g FW; in data set [4] (setting [10]), 169 ± 10 SE/g FW. The “Mean grams FW at the end of prematuration stage” value turned out to be 121.90 g in data set [4] (setting [8]), 216.47 g in data set [4] (setting [9]) and 149.13 g in data set [4] (setting [10]). Also, the “Osmolarity before inoculation (mmol/kg, mean ± SD)” value in data set [5] is reported as 93.33 ± 0.58 mmol/kg. The embryos produced entry in data set [6] (line LP1, as stated in the text) is on record as “over 1000 embryos”. The “# SE/g FW” value in data set [6] (line LP1) was determined as 1060 ± 17 SE/g FW; in data set [6] (line LP3) it was 110 ± 7 SE/g FW. The “Amount of tissue at the end of the preculture II stage” value was 28.9 in data set [6] (line LP1) and 8.78 in data set [6] (line LP3). For the same molecule, in data set [7] (1.5% maltose or 1.5% lactose for 4 weeks in liquid, then 8-10 weeks on 1/2 LV maturation medium), the “# SE/g FW ± sd” value came out at 393 ± 10 SE/g FW. Besides, the “Average amount of tissue produced after 4 weeks in liquid (FW g)” value in data set [7] (1.5% maltose or 1.5% lactose in maintenance and prematuration I and II, started with 2 g) came to 18.63 g.
